Laboratory results from US10266497B2 (ABIDE THERAPEUTICS, INC., priority 2017, dated 2019).

Experiments:
[1] = biological target: T1, FAAH (Mus musculus, UniProt O08914); assay: Mouse brain proteomes from inhibitor treated mice (oral gavage, sacrificed 4 h after administration), FAAH; format: in vivo; parameters: mouse brain membrane fraction for mouse assays; from tissue; host or cells: mouse brain (membrane fraction in vitro; brain proteomes of treated C57Bl/6J mice in vivo); settings: 5 mg/kg oral gavage, brain proteome 4 h after administration, read-out: FAAH % inh. 5 mg/kg (mouse)
T1 sequence (O08914 1-579): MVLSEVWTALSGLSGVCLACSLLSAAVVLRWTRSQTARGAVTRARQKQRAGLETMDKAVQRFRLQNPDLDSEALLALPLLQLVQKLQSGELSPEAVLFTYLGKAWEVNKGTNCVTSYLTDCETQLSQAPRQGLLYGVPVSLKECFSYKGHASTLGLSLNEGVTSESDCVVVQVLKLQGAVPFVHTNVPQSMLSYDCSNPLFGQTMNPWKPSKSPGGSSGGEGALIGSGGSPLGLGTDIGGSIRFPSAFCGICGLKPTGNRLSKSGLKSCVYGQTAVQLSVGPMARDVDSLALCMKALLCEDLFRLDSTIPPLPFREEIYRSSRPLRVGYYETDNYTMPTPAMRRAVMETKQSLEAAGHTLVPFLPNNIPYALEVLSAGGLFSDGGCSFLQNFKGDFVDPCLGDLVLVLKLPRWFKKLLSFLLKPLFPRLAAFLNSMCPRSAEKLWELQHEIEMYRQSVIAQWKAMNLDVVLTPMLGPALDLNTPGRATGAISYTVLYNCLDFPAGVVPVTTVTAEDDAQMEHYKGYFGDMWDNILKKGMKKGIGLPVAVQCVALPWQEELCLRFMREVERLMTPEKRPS

[2] = biological target: T2, MAGL (Homo sapiens, UniProt Q99685); assay: In vitro competitive activity-based protein profiling, MAGL, human; settings: read-out: MAGL % inh. 1 μM (human)
T2 sequence (Q99685 1-303): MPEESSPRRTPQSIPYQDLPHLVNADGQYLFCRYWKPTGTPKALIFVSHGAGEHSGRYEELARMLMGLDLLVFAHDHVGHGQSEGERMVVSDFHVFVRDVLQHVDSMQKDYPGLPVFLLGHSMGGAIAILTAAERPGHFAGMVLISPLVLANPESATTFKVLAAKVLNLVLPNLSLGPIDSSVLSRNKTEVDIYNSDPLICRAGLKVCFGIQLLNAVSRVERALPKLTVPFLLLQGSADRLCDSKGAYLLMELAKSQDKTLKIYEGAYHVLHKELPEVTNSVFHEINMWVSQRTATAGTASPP
Experimental: (§1) Biological Evaluation In Vitro Competitive Activity-Based Protein Profiling.
(§2) Proteomes (mouse brain membrane fraction for mouse assays; human prefrontal cortex membrane fractions for human assays) (50 mL, 1.0 mg/mL total protein concentration) were preincubated with varying concentrations of inhibitors at 37° C. After 30 min, FP-Rh (1.0 mL, 50 mM in DMSO) was added and the mixture was incubated for another 30 min at 37° C. Reactions were quenched with SDS loading buffer (15 μL—4λ) and run on SDS-PAGE.

[3] = biological target: T3, MAGL (Mus musculus, UniProt O35678); assay: In vitro competitive activity-based protein profiling, MAGL, mouse; settings: read-out: MAGL % inh. 1 μM (mouse)
T3 sequence (O35678 1-303): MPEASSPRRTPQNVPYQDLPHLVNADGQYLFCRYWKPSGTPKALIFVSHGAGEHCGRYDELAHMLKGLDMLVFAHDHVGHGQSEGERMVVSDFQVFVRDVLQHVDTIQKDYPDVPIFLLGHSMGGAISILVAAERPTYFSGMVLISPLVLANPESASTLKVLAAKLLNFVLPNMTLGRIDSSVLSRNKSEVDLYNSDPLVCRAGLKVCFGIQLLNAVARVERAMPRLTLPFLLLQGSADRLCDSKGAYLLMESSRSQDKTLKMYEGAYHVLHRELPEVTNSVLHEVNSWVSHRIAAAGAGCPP

[4] = biological target: T4, FAAH (Homo sapiens, UniProt O00519); assay: In vitro competitive activity-based protein profiling, FAAH, human; settings: for inhibition at 1 µM: read-out: FAAH % inh. 1 μM (human)
T4 sequence (O00519 1-579): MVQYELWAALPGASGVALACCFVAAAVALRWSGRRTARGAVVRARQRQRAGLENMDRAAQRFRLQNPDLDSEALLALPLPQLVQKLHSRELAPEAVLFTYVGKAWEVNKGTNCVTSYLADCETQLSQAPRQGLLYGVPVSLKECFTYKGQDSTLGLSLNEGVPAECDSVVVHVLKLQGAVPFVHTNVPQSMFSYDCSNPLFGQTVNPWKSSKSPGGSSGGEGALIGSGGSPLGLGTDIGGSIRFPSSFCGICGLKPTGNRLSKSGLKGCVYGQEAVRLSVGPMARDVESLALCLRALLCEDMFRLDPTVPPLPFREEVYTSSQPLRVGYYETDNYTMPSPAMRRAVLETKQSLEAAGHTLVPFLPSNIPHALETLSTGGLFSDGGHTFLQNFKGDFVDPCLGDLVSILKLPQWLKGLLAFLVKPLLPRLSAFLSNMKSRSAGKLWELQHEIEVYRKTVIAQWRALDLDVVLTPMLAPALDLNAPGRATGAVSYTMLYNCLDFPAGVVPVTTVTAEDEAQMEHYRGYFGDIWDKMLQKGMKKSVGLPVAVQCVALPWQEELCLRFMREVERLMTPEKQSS
Experimental: as §1, §2

[5] = biological target: T1, FAAH; assay: In vitro competitive activity-based protein profiling, FAAH, mouse; settings: read-out: FAAH % inh. 1 μM (mouse)
[6] = biological target: T3, MAGL; assay: Mouse brain proteomes from inhibitor treated mice (oral gavage, sacrificed 4 h after administration); format: in vivo; parameters: mouse brain membrane fraction for mouse assays; from tissue; host or cells: mouse brain (membrane fraction in vitro; brain proteomes of treated C57Bl/6J mice in vivo); settings: 5 mg/kg oral gavage, brain proteome 4 h after administration, read-out: MAGL % inh. 5 mg/kg (mouse)

| Compound | inhibition at 5 mg/kg [1] [%] | inhibition at 1 µM [2] [%] | inhibition at 1 µM [3] [%] | inhibition at 1 µM [4] [%] | inhibition at 1 µM [5] [%] | inhibition at 5 mg/kg [6] [%] | IC50 [4] [nM] |
| --- | --- | --- | --- | --- | --- | --- | --- |
| O=C(O)c1ccn(C(=O)N2CCN(Cc3cccc(C(F)(F)F)c3N3CCCC3)CC2)n1 [Example 90, 1-(4-(2-(pyrrolidin-1-yl)-3-(trifluoromethyl)benzyl)piperazine-1-carbonyl)-1H-pyrazole-3-carboxylic acid] | 0 to 25 | > 75 | > 75 | 0 to 25 | 0 to 25 | 0 to 25 |  |
| O=C(O)c1ccn(C(=O)N2CCN(Cc3ccc(C(F)(F)F)cc3N3CCN(C4CC4)CC3)CC2)n1 [Example 6, 1-(4-(2-(4-Cyclopropylpiperazin-1-yl)-4-(trifluoromethyl)benzyl)piperazine-1-carbonyl)-1H-pyrazole-3-carboxylic Acid] | 0 to 25 | > 75 | > 75 | 0 to 25 | 0 to 25 | 0 to 25 |  |
| COC1CCN(c2cc(C(F)(F)F)ccc2CN2CCN(C(=O)n3ccc(C(=O)O)n3)CC2)CC1 [Example 12, 1-(4-(2-(4-Methoxypiperidin-1-yl)-4-(trifluoromethyl)benzyl)piperazine-1-carbonyl)-1H-pyrazole-3-carboxylic Acid] | 0 to 25 | > 75 | > 75 | 0 to 25 | 0 to 25 | 0 to 25 |  |
| Cc1cn(C(=O)N2CCC3(CCN(Cc4cc(Cl)ccc4C(F)(F)F)C3)CC2)nc1C(=O)O [Example 130, 1-(2-(5-chloro-2-(trifluoromethyl)benzyl)-2,8-diazaspiro[4.5]decane-8-carbonyl)-4-methyl-1H-pyrazole-3-carboxylic acid] | 0 to 25 | > 75 | > 75 | 50 to 75 | 50 to 75 | 0 to 25 | 100 to 1000 |
| CN(Cc1ccc(C(F)(F)F)cc1N1CCOCC1)C1(C)CCN(C(=O)n2ccc(C(=O)O)n2)CC1 [Example 4, 1-(4-Methyl-4-(methyl(2-morpholino-4-(trifluoromethyl)benzyl)amino)piperidine-1-carbonyl)-1H-pyrazole-3-carboxylic Acid] | 0 to 25 | > 75 | > 75 | 0 to 25 | 0 to 25 | 0 to 25 |  |
| Cc1c(CN2CCN(C(=O)n3ccc(C(=O)O)n3)CC2)[nH]c2ccc(Cl)cc12 [Example 188, 1-(4-((5-chloro-3-methyl-1H-indol-2-yl)methyl)piperazine-1-carbonyl)-1H-pyrazole-3-carboxylic acid] | 0 to 25 | > 75 | > 75 | 0 to 25 | 0 to 25 | 0 to 25 |  |
| O=C(O)c1ccn(C(=O)N2CCN(Cc3cccc(Cl)c3N3CC4COCC4C3)CC2)n1 (stereo not drawn) [Example 211, 1-(4-(3-chloro-2-(tetrahydro-1H-furo[3,4-c]pyrrol-5(3H)-yl)benzyl)piperazine-1-carbonyl)-1H-pyrazole-3-carboxylic acid] | 0 to 25 | > 75 | > 75 | 0 to 25 | 0 to 25 | 0 to 25 |  |
| Cc1c(CO[C@H]2C[C@@H]3CN(C(=O)n4ccc(C(=O)O)n4)C[C@@H]3C2)cccc1C(F)(F)F [Example 159, 1-(trans-5-((2-methyl-3-(trifluoromethyl)benzyl)oxy)octa-hydrocyclopenta[c]pyrrole-2-carbonyl)-1H-pyrazole-3-carboxylic acid] | 0 to 25 | > 75 | > 75 | > 75 | > 75 | 0 to 25 | 100 to 1000 |
| O=C(O)c1ccn(C(=O)N2CCN(Cc3cccc(Oc4ccc(Cl)cc4)c3)CC2)n1 [Example 98, 1-(4-(3-(4-chlorophenoxy)benzyl)piperazine-1-carbonyl)-1H-pyrazole-3-carboxylic acid] | 0 to 25 | > 75 | > 75 | > 75 | > 75 | 0 to 25 | 100 to 1000 |
| O=C(O)c1ccn(C(=O)N2CCN(Cc3ccc(C(F)(F)F)c(-c4nccs4)c3)CC2)n1 [Example 8, 1-(4-(3-(Thiazol-2-yl)-4-(trifluoromethyl)benzyl)piperazine-1-carbonyl)-1H-pyrazole-3-carboxylic Acid] | 0 to 25 | > 75 | > 75 | 0 to 25 | 0 to 25 | 0 to 25 |  |
| NC(=O)C1CCN(c2cc(C(F)(F)F)ccc2CN2CCN(C(=O)n3ccc(C(=O)O)n3)CC2)CC1 [Example 113, 1-(4-(2-(4-carbamoylpiperidin-1-yl)-4-(trifluoromethyl)benzyl)piperazine-1-carbonyl)-1H-pyrazole-3-carboxylic acid] | 0 to 25 | > 75 | > 75 | 0 to 25 | 0 to 25 | 0 to 25 |  |
| O=C(O)c1ccn(C(=O)N2CCN(Cc3ccc(C(F)(F)F)c(N4C5CCC4COC5)c3)CC2)n1 [Example 40, 1-(4-(3-(3-oxa-8-azabicyclo[3.2.1]octan-8-yl)-4-(trifluoromethyl)benzyl)piperazine-1-carbonyl)-1H-pyrazole-3-carboxylic acid] | 0 to 25 | > 75 | > 75 | 0 to 25 | 0 to 25 | 0 to 25 |  |
| O=C(O)c1ccn(C(=O)N2CCN(Cc3ccc(C(F)(F)F)cc3N3CC[C@@H](F)C3)CC2)n1 [Example 101, (R)-1-(4-(2-(3-fluoropyrrolidin-1-yl)-4-(trifluoromethyl)benzyl)piperazine-1-carbonyl)-1H-pyrazole-3-carboxylic acid] | 0 to 25 | > 75 | > 75 | 0 to 25 | 0 to 25 | 0 to 25 |  |
